The series in a line: In vitro release of Rg3 by the dialysis method. Type of series: physicochemical. The note with it: after 24 hours, PBS pH 7.4, 37° C. How it is done: To estimate the Rg3-loaded nanoniosome's in vitro drug release profile, 1 mL of the formulation was placed inside a dialysis bag and then immersed in a PBS solution (maintained at 37° C. and a pH of 7.4) with constant stirring. The PBS solution surrounding the dialysis bag (which contained released Rg3) was extracted at different time intervals for 24 hours, and the absorbance intensity was measured at 203 nm. The quantity of Rg3 measured in the medium is divided by the starting amount of Rg3 in the formulation to determine the amount of Rg3 released.

For `CC(C)=CCC[C@](C)(O)[C@H]1CC[C@]2(C)[C@@H]1[C@H](O)C[C@@H]1[C@@]3(C)CC[C@H](O[C@@H]4O[C@H](CO)[C@@H](O)[C@H](O)[C@H]4O[C@@H]4O[C@H](CO)[C@@H](O)[C@H](O)[C@H]4O)C(C)(C)[C@@H]3CC[C@]12C` [Ginsenoside Rg3], the “release of the loaded drug” value came to 24.78%.

Values taken from patent US20250041236A1, “METHOD FOR SYNTHESIZING GINSENOSIDE RG3-LOADED NANONIOSOMES” (priority 2024, published 2025).
